Data reported in the supplement of paper PMC10307832.

compound: N[C@@H]1CCCN(c2c(/C=C3\SC(=O)NC3=O)cccc2-c2ccccc2)C1 [AZD1208] + NC(=O)Nc1cc(-c2cccc(F)c2)sc1C(=O)N[C@H]1CCCNC1 [AZD7762] (partner 0.2 µM); test: relative viability (nuclei count vs DMSO), 5 days (fraction); higher = more cells survive; conditions: first compound 0.08 µM
Procedure, shortened: (§1)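 Dosing by pin tool came one day after lung cancer cell lines were seeded in 1536-well plates, using either one drug or a fixed anchor-drug dose plus five library-drug doses (not always all listed) in √10 steps. After 5 days, nuclei were counted on 4× images. Relative viability is treated-well nuclei count divided by vehicle-well nuclei count, and values are medians of duplicate plates.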

Cell Line | relative viability
LXF-289 | 1.13
NCI-H2347 | 0.835
NCI-H650 | 1.05
NCI-H1651 | 0.458
EPLC-272H | 0.276
NCI-H23 | 0.245
NCI-H1792 | 0.815
NCI-H1355 | 0.75
NCI-H322M | 0.627
NCI-H1437 | 1.18
NCI-H1755 | 0.509
NCI-H2085 | 1
HCC-15 | 1.19
NCI-H1793 | 0.599
PC-3 [JPC-3] | 1.03
EKVX | 0.76
LC-2-ad | 0.842
NCI-H1944 | 0.494

same assay, conditions: first compound 0.253 µM

Cell Line | relative viability
HCC-44 | 1.05
LU99A | 0.385
BEN | 0.578
HARA | 0.468
HCC-78 | 0.758
NCI-H441 | 1.16
LCLC-97TM1 | 0.591
A-427 | 0.789
NCI-H460 | 0.716
NCI-H727 | 0.708
NCI-H1734 | 0.543
NCI-H2405 | 0.636
NCI-H1395 | 0.401
201T | 0.654
NCI-H1915 | 0.76
HCC-827 | 0.259
LXF-289 | 1.27

Cell Line | relative viability
NCI-H2347 | 0.747
NCI-H650 | 1.09
NCI-H1651 | 0.54
EPLC-272H | 0.339
NCI-H23 | 0.251
NCI-H1792 | 0.739
NCI-H1355 | 0.836
NCI-H322M | 0.545
NCI-H1437 | 1.13
NCI-H1755 | 0.577
NCI-H2085 | 1.13
HCC-15 | 1.26
NCI-H1793 | 0.611
PC-3 [JPC-3] | 0.89
EKVX | 0.801
LC-2-ad | 0.888
NCI-H1944 | 0.693

same assay, conditions: first compound 0.8 µM

Cell Line | relative viability
HCC-44 | 1.03
LU99A | 0.41
BEN | 0.562
HARA | 0.373
HCC-78 | 0.643
NCI-H441 | 0.936
LCLC-97TM1 | 0.334
A-427 | 0.665
NCI-H460 | 0.643
NCI-H727 | 0.502
NCI-H1734 | 0.469
NCI-H2405 | 0.699
NCI-H1395 | 0.377
201T | 0.565
NCI-H1915 | 0.766
HCC-827 | 0.237

Cell Line | relative viability
LXF-289 | 1.19
NCI-H2347 | 0.72
NCI-H650 | 0.795
EPLC-272H | 0.205
NCI-H23 | 0.243
NCI-H1355 | 0.686
NCI-H1437 | 1.06
NCI-H1755 | 0.455
NCI-H2085 | 0.911
HCC-15 | 1.03
NCI-H1793 | 0.403
PC-3 [JPC-3] | 0.692
EKVX | 0.674
LC-2-ad | 0.798
NCI-H1944 | 0.442

same assay, conditions: first compound 2.53 µM

Cell Line | relative viability
HCC-44 | 1.07
LU99A | 0.435
BEN | 0.503
HARA | 0.557
HCC-78 | 0.739
NCI-H441 | 1.21
LCLC-97TM1 | 0.386
A-427 | 0.653
NCI-H460 | 0.824
NCI-H727 | 0.441
NCI-H1734 | 0.465
NCI-H2405 | 0.705
NCI-H1395 | 0.448
201T | 0.693
NCI-H1915 | 0.778
HCC-827 | 0.239
LXF-289 | 1.22

Cell Line | relative viability
NCI-H2347 | 0.764
NCI-H650 | 0.833
NCI-H1651 | 0.439
EPLC-272H | 0.189
NCI-H23 | 0.228
NCI-H1792 | 0.593
NCI-H1355 | 0.732
NCI-H322M | 0.53
NCI-H1437 | 1.09
NCI-H1755 | 0.446
NCI-H2085 | 0.892
HCC-15 | 1.43
NCI-H1793 | 0.482
PC-3 [JPC-3] | 0.793
EKVX | 0.719
LC-2-ad | 0.804
NCI-H1944 | 0.5

same assay, conditions: first compound 8 µM

Cell Line | relative viability
HCC-44 | 1.08
LU99A | 0.365
BEN | 0.478
HARA | 0.44
HCC-78 | 0.793
NCI-H441 | 1.16
LCLC-97TM1 | 0.306
A-427 | 0.689
NCI-H460 | 0.7
NCI-H727 | 0.518
NCI-H1734 | 0.425
NCI-H2405 | 0.629
NCI-H1395 | 0.367
201T | 0.511
NCI-H1915 | 0.673
HCC-827 | 0.197
LXF-289 | 1.38

Cell Line | relative viability
NCI-H2347 | 0.781
NCI-H650 | 0.871
NCI-H1651 | 0.472
EPLC-272H | 0.271
NCI-H23 | 0.29
NCI-H1792 | 0.56
NCI-H1355 | 0.628
NCI-H322M | 0.552
NCI-H1437 | 1.05
NCI-H1755 | 0.448
NCI-H2085 | 1.04
HCC-15 | 1.19
NCI-H1793 | 0.401
PC-3 [JPC-3] | 0.823
EKVX | 0.606
LC-2-ad | 0.897
NCI-H1944 | 0.395

compound: N[C@@H]1CCCN(c2c(/C=C3\SC(=O)NC3=O)cccc2-c2ccccc2)C1 [AZD1208] + CS(=O)(=O)N1CCN(Cc2cc3nc(-c4cccc5[nH]ncc45)nc(N4CCOCC4)c3s2)CC1 [Pictilisib] (partner 1 µM); test: as above; conditions: first compound 0.08 µM
Procedure, shortened: as §1

Cell Line | relative viability
HCC-44 | 0.617
LU99A | 0.304
BEN | 0.525
HARA | 0.349
HCC-78 | 0.205
NCI-H441 | 0.343
LCLC-97TM1 | 0.164
A-427 | 0.673
NCI-H460 | 0.341
